From patent US9982005B2, “Macrolides and methods of their preparation and use” (President and Fellows of Harvard College, priority 2013, dated 2018)
Values after ≈ are worked out from the molar mass of the structure shown. Where two headings read alike, the source gives them in different places.

Legend:
Assay type in all cases: cell-based
[1] = system: S. pneumoniae strains; assay: MIC against S. pneumoniae strains (Tables M7, M8); conditions: Streptococcus pneumoniae
Source text: CLSI standard procedures for broth dilution MIC determination were used. […] These genotypes can be constitutive or inducible.

[2] = system: H. influenzae strains; assay: MIC against H. influenzae strains (Table M8); conditions: Haemophilus influenzae
In short: (§1)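 Antibacterial activity is reported as MIC by CLSI broth dilution. Panel strains were chosen with a focus on macrolide-resistance mechanisms. Azithromycin control included.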

[3] = system: E. faecalis strains; assay: MIC against E. faecalis strains (Table M8); conditions: Enterococcus faecalis, E. faecalis 29212
[4] = system: E. coli strains; assay: MIC against E. coli strains (Table M7); conditions: Escherichia coli, ATCC25922, E. coli ATCC 25922
In short: as §1

[5] = system: E. coli (MC4100); assay: MIC, E. coli MC4100
Source text: (§2) We have collected MIC data for a total of 50 novel macrolides that this platform has produced against over 21 unique strains of B. subtilis, E. coli, S. aureus, S. pneumoniae, and H. influenzae, including several multidrug-resistant strains, with a special focus on macrolide resistant mechanisms (vide supra). Azithromycin was included as a control macrolide. CLSI standard procedures for broth dilution MIC determination were used. […] These genotypes can be constitutive or inducible. The finding that C4-epi (unnatural) isomers of the “azaketolide” macrolide class have enhanced activities relative to C4 natural isomers is very exciting.

[6] = system: A. baumannii strains; assay: MIC against A. baumannii strains (Table M8); conditions: Acinetobacter baumannii, BAA747, A. baumannii BAA747-1
[7] = system: S. aureus (Newman, clinical isolate); assay: MIC, S. aureus Newman; conditions: Staphylococcus aureus
Source text: as §2

[8] = system: K. pneumoniae strains; assay: MIC against K. pneumoniae strains (Table M8); conditions: Klebsiella pneumoniae, K. pneumoniae 10031
[9] = system: S. aureus strains; assay: MIC against S. aureus strains (Table M7); conditions: Staphylococcus aureus
In short: as §1

[10] = S. pneumoniae 160, read-out: MIC S. pneumonae (160)
[11] = S. pneumoniae 1509, read-out: MIC S. pneumoniae (1509)
[12] = S. pneumoniae 1533, read-out: MIC S. pneumoniae (1533)
[13] = S. pneumoniae 1537, read-out: MIC S. pneumoniae (1537)
[14] = S. pneumoniae 49619, read-out: MIC S. pneumoniae (49619)
[15] = H. influenzae 49247, read-out: MIC H. influenzae (49247)
[16] = H. influenzae 49766, read-out: MIC H. influenzae (49766)
[17] = Escherichia coli, round 1, read-out: MIC
[18] = S. aureus (Newman, clinical isolate), round 1
[19] = ATCC29213, S. aureus ATCC 29213, read-out: MIC S. aureus (ATCC 29213)
[20] = S. aureus 506, read-out: MIC S. aureus (506)
[21] = S. aureus 1708, read-out: MIC S. aureus (1708)
[22] = USA300, S. aureus USA300, read-out: MIC S. aureus (USA300)
[23] = Escherichia coli, round 2, read-out: MIC
[24] = S. aureus (Neuman, clinical isolate), round 2

MIC [1, 10] [µg/mL] | MIC [1, 11] [µg/mL] | MIC [1, 12] [µg/mL] | MIC [1, 13] [µg/mL] | MIC [1, 14] [µg/mL] | MIC [2, 15] [µg/mL] | MIC [2, 16] [µg/mL] | MIC [3] [µg/mL] | MIC [4] [µg/mL] | MIC [5, 17] [µg/mL] | MIC [6] [µg/mL] | MIC [7, 18] [µg/mL] | MIC [8] [µg/mL] | MIC [9, 19] [µg/mL] | MIC [9, 20] [µg/mL] | MIC [9, 21] [µg/mL] | MIC [9, 22] [µg/mL] | MIC [5, 23] [µg/mL] | MIC [7, 24] [µg/mL] | SMILES | other results
0.125 (≈ 0.154 µM) | 32 (≈ 39.3 µM) | > 32 | > 32 | 0.25 (≈ 0.307 µM) | 0.5 (≈ 0.614 µM) | 4 (≈ 4.91 µM) | 0.25 (≈ 0.307 µM) | 8 (≈ 9.83 µM) | 8 (≈ 9.83 µM) | 8 (≈ 9.83 µM) | 2 (≈ 2.46 µM) | 2 (≈ 2.46 µM) | 4 (≈ 4.91 µM) | > 32 | 4 (≈ 4.91 µM) | 4 (≈ 4.91 µM) |  |  | CC[C@H]1OC(=O)[C@H](C)C(=O)[C@H](C)[C@@H](O[C@@H]2OC(C)CC(N(C)C)C2O)[C@](C)(OC)C[C@@H](C)CN[C@H](C)[C@H]2N(CCCn3cc(-c4cccc(N)c4)nn3)C(=O)O[C@]12C (stereo partly shown) [FSM-40347] | 
> 32 | > 32 | > 32 | > 32 | > 32 | > 32 | > 32 | > 32 | > 32 |  | > 32 |  | > 32 | > 32 | > 32 | > 32 | > 32 | > 32 | > 32 | CC[C@H]1OC(=O)[C@H](C)C(=O)[C@H](C)[C@@H](O[C@@H]2OC(C)CC(N(C)C)C2O)[C@](C)(OC)CCN[C@H](C)[C@H]2N(CCCCn3cc(-c4cccc(N)c4)nn3)C(=O)O[C@]12C (stereo partly shown) [FSM-30622] | 
> 32 | > 32 | > 32 | > 32 | > 32 | 32 (≈ 40.9 µM) | > 32 | > 32 | > 32 |  | > 32 |  | > 32 | > 32 | > 32 | > 32 | > 32 | > 32 | > 32 | CC[C@H]1OC(=O)[C@H](C)C(=O)[C@H](C)[C@@H](O[C@@H]2OC(C)CC(N(C)C)C2O)/C(C)=C/CN(C)[C@H](C)[C@H]2N(CCCCn3cc(-c4cccc(N)c4)nn3)C(=O)O[C@]12C (stereo partly shown) [FSM-30633] | 
0.125 (≈ 0.148 µM) | 2 (≈ 2.38 µM) | > 32 | > 32 | ≤ 0.0625 | 0.5 (≈ 0.594 µM) | 2 (≈ 2.38 µM) | 0.125 (≈ 0.148 µM) | 8 (≈ 9.5 µM) | 16 (≈ 19 µM) | 32 (≈ 38 µM) | 2 (≈ 2.38 µM) | 2 (≈ 2.38 µM) | 1 (≈ 1.19 µM) | > 32 | 1 (≈ 1.19 µM) | 2 (≈ 2.38 µM) |  |  | CC[C@H]1OC(=O)[C@H](C)C(=O)[C@H](C)[C@@H](O[C@@H]2OC(C)CC(N(C)C)C2O)[C@](C)(OC)C[C@@H](C)CN[C@H](C)[C@H]2N(CCCCCn3cc(-c4cccc(N)c4)nn3)C(=O)O[C@]12C (stereo partly shown) [FSM-40349] | 
≤ 0.0625 | 0.5 (≈ 0.652 µM) | 32 (≈ 41.7 µM) | 32 (≈ 41.7 µM) | ≤ 0.0625 | 1 (≈ 1.3 µM) | 4 (≈ 5.22 µM) | 0.5 (≈ 0.652 µM) | 4 (≈ 5.22 µM) | 2 (≈ 2.61 µM) | 16 (≈ 20.9 µM) | 0.25 (≈ 0.326 µM) | 16 (≈ 20.9 µM) | 0.25 (≈ 0.326 µM) | > 32 | 0.25 (≈ 0.326 µM) | 0.5 (≈ 0.652 µM) |  | 0.5 (≈ 0.652 µM) | CC[C@H]1OC(=O)[C@H](C)C(=O)[C@H](C)[C@@H](O[C@@H]2OC(C)CC(N(C)C)C2O)[C@](C)(OC/C=C/c2cnc3ccccc3c2)C[C@@H](C)CN[C@H](C)[C@H]2NC(=O)O[C@@]21C (stereo partly shown) [FSM-20919] | MIC ([5]; round 2): 2 µg/mL (≈ 2.61 µM); MIC ([9]; S. aureus 183, read-out: MIC S. aureus (183)): > 32 µg/mL
